Source: patent publication US8815872B2, “Macrocyclics pyrimidines as aurora kinase inhibitors” (Merck Patent GmbH, priority 2008, dated 2014)

Tests used:
Assay in all cases: Other kinases, single-concentration inhibition (Table 3)
Assay type in all cases: biochemical
NEK2(h) = biological target: T1, NEK2(h) (Homo sapiens, UniProt P51955)
T1 construct: purchased Caliper Life Sciences
T1 sequence (P51955 1-445): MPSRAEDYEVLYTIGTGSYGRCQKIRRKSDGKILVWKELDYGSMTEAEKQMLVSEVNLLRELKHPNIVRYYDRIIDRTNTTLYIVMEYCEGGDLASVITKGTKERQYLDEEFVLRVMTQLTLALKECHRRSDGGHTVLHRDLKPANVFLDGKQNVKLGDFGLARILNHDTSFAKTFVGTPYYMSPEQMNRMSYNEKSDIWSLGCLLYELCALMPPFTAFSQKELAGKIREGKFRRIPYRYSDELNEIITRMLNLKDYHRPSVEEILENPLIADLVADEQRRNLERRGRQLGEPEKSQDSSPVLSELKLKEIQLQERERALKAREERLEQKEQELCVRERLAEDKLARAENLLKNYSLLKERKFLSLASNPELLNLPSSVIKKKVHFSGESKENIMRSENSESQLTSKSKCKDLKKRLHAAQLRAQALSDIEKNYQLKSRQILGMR
Method: (§1) The Aurora and other kinase assays described here were performed on two Caliper Life Sciences systems, the LC3000 and the Desktop Profiler. These provide data on enzyme activity via measurement of the relative amounts of phosphorylated or unphosphorylated fluorescently labelled substrate peptide at the end of an enzymatic reaction. These different states of peptide are resolved by applying a potential difference across the sample. The presence of a charged phosphate group on the product (as opposed to the substrate) causes a different peptide mobility between the two peptides. This is visualized by excitation of a fluorescent label on the substrate and product peptides and represented as peaks within the analysis software.
(§2) The Desktop Profiler utilizes the same principal as the LC 3000 for calculating percentage conversion of a substrate to product. Caliper Life Sciences provided proprietary flash frozen pre-made 384 well plates containing selected kinases. Each column in the 384 well plate contained a particular selected kinase. A second plate, the ‘substrate plate’ contained a mix of fluorescently labeled peptide substrate and ATP. These were arranged in columns so that transfer for substrate plate to enzyme plate provided the correct enzyme with the correct substrate/ATP concentration.
(§3) Compounds were added to a thawed enzyme plate in the desired format, in single concentrations. Reactions were initiated by transfer of the ubstrate/ATP mix from the substrate plate. The enzyme plate was incubated for 90 mins at 25 °C. The reaction was stopped by addition of […] of Stop Buffer (100 mM HEPES pH 7.5, 0.015% Brij-35, 10 mM EDTA (Sigma, E7889)).
(§4) Plates were read in a manner identical to that of the LC3000, and the ratio between substrate and product peaks provided the activity of the enzyme in that well. This was best represented by a plate heat map which colors each well by percent inhibition as compared to positive and negative controls (no inhibitors and no ATP respectively).

EGFR(h) = biological target: T2, EGFR(h) (Homo sapiens, UniProt P00533)
T2 construct: purchased Caliper Life Sciences
Method: as §1, §2, §3, §4

MSK2(h) = biological target: T3, MSK2(h) (Homo sapiens, UniProt O75676)
T3 construct: purchased Caliper Life Sciences
Method: as §1, §2, §3, §4

Axl(h) = biological target: T4, Axl(h) (Homo sapiens, UniProt P30530)
T4 construct: purchased Caliper Life Sciences
T4 sequence (P30530 26-894): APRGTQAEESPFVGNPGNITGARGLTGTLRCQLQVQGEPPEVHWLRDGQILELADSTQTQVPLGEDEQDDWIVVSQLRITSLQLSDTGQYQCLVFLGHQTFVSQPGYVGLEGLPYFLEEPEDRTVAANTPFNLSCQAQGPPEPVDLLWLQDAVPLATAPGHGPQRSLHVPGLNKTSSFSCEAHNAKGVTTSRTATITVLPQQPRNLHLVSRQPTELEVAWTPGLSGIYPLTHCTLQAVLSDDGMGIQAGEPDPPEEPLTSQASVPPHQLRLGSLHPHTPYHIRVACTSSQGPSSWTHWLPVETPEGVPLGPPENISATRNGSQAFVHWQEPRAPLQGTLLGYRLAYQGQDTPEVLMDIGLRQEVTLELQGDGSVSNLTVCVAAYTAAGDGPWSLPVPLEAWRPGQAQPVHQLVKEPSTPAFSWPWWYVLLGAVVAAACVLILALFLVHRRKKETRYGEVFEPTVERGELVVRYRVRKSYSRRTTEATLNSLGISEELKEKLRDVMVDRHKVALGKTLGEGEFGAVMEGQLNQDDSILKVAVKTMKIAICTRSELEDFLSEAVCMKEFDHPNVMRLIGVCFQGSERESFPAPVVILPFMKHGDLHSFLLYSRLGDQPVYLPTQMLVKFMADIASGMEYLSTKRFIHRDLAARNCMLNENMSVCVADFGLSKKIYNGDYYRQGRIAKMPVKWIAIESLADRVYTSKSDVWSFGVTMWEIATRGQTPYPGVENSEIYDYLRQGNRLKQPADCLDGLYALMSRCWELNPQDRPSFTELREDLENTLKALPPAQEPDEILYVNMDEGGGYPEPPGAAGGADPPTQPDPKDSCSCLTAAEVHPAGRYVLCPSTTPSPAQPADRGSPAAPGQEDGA
Method: as §1, §2, §3, §4

ROCK-I(h) = biological target: T5, ROCK-I(h) (Homo sapiens, UniProt Q13464)
T5 construct: purchased Caliper Life Sciences
Method: as §1, §2, §3, §4

Tie2(h) = biological target: T6, Tie2(h) (Homo sapiens, UniProt Q02763)
T6 construct: purchased Caliper Life Sciences
Method: as §1, §2, §3, §4

Tie2(R849W)(h) = biological target: T7, Tie2(R849W)(h) (Homo sapiens, UniProt Q02763, R849W)
T7 construct: purchased Caliper Life Sciences
Method: as §1, §2, §3, §4

KDR(h) = biological target: T8, KDR(h) (Homo sapiens, UniProt P35968)
T8 construct: purchased Caliper Life Sciences
Method: as §1, §2, §3, §4

T7 sequence (Q02763 23-1124 R849W): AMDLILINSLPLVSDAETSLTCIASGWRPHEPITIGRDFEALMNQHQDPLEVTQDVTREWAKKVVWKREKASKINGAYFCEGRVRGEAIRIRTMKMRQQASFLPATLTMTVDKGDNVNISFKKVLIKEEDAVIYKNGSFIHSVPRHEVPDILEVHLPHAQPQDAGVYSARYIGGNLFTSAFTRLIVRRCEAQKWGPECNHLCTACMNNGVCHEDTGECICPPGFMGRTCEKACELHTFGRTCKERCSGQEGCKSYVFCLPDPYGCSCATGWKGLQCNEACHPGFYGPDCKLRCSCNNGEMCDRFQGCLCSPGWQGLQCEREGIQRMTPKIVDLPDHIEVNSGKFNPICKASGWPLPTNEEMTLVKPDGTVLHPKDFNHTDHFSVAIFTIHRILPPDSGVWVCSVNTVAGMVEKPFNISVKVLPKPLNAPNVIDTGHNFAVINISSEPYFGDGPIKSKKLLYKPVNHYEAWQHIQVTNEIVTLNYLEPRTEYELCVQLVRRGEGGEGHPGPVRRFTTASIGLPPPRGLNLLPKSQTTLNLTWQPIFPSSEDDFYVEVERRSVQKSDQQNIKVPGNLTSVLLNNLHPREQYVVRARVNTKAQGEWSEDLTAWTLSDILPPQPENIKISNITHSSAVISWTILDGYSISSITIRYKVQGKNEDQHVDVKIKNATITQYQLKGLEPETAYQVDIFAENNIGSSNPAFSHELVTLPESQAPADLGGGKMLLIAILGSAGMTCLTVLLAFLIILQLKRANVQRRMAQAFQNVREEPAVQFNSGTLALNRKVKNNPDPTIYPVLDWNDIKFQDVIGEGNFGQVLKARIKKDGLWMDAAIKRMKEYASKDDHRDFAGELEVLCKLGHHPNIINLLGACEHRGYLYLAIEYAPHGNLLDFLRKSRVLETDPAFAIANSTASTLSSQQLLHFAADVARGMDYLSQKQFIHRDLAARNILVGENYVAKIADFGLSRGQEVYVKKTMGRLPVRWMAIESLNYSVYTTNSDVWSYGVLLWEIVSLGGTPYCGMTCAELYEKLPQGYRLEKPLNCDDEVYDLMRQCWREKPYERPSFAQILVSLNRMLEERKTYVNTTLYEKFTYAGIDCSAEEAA
T8 sequence (P35968 20-1356): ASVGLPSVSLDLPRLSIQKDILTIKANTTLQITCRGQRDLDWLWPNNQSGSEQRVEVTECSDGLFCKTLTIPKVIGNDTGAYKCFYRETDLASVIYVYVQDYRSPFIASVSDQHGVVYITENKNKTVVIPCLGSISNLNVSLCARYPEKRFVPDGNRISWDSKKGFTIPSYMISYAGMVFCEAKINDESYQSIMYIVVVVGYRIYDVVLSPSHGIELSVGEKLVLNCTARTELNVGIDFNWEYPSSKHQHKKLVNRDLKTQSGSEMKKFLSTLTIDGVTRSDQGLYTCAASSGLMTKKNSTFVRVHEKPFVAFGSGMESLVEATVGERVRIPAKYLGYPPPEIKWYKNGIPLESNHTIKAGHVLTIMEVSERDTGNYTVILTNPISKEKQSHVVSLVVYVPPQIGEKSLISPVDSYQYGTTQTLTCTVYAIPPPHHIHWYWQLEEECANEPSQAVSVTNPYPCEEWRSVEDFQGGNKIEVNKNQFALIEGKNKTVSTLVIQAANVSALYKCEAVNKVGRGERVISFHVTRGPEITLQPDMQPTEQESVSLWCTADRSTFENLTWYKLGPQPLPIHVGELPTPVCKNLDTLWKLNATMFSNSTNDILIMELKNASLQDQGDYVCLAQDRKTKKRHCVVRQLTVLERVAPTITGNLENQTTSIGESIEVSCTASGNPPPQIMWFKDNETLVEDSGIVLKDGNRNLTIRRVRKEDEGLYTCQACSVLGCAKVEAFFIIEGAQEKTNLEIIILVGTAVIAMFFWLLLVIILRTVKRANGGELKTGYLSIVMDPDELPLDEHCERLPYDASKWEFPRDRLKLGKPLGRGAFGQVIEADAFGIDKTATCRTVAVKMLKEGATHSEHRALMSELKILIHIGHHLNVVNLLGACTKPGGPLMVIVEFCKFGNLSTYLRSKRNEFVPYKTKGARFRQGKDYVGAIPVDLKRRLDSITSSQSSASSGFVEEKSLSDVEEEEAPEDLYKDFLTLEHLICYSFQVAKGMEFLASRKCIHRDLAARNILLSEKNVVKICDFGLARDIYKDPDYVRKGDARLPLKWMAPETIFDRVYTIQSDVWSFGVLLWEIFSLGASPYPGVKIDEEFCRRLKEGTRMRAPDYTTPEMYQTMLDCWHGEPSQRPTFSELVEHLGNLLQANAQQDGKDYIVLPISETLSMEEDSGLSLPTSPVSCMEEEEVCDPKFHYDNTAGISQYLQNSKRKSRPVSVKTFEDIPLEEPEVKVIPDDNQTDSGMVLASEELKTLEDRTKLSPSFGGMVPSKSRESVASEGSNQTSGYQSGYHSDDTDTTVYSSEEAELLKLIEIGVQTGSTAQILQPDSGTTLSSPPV
T3 sequence (O75676 whole entry): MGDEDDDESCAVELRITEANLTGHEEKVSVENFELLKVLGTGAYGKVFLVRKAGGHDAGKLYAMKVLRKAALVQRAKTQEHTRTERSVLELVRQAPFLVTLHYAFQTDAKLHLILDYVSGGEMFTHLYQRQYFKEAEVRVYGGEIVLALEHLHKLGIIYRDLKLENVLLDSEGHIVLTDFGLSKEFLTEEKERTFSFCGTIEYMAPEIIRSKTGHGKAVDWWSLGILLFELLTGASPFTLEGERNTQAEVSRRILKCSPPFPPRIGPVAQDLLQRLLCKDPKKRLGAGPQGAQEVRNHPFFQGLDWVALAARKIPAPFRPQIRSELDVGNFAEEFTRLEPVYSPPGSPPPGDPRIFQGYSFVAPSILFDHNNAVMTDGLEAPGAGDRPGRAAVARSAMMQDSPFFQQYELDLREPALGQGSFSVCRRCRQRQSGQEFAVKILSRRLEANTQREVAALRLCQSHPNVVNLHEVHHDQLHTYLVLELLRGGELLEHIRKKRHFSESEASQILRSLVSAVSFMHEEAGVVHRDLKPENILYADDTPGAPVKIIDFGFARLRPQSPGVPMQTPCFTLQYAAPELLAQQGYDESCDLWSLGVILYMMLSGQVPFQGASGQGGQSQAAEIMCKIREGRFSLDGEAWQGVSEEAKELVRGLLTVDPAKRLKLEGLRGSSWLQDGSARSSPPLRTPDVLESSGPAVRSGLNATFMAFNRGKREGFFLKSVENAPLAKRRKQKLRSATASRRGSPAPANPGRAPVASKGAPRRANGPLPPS
T5 sequence (Q13464 whole entry): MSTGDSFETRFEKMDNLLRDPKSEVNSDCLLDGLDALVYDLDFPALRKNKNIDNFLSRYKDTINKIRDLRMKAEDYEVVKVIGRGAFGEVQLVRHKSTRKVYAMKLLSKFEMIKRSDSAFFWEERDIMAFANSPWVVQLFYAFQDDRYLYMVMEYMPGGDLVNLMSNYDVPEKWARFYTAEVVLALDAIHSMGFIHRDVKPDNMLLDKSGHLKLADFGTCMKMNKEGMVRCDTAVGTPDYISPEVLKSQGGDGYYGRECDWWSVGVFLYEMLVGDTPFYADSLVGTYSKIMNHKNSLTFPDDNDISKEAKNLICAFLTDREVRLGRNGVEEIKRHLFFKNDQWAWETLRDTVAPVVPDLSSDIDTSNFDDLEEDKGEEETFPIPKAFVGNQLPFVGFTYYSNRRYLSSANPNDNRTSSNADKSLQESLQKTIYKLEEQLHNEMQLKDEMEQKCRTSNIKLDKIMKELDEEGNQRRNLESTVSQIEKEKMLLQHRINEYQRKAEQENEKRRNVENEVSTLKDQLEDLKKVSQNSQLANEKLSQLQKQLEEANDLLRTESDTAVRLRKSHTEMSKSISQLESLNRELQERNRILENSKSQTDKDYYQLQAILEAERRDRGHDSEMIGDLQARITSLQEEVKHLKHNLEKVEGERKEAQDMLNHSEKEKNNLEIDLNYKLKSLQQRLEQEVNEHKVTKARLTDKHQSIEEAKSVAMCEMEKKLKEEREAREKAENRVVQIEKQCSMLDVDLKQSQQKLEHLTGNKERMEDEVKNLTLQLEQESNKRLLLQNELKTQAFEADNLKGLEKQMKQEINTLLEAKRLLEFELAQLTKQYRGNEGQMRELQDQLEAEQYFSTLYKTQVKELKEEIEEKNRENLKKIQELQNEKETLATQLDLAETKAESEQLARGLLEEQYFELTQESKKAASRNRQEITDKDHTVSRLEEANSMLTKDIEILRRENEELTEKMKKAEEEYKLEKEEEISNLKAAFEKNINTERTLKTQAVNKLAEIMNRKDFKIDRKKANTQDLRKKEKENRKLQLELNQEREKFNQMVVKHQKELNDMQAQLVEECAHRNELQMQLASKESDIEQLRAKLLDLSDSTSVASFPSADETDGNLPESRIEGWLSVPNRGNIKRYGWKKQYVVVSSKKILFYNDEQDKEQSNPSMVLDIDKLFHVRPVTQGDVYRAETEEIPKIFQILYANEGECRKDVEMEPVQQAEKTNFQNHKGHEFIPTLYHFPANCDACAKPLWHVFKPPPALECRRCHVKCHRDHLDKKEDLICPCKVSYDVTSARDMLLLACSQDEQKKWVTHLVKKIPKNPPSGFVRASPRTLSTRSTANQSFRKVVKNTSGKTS
T6 sequence (Q02763 23-1124): as the sequence (Q02763 23-1124 R849W) above, with W827R counted along it

Compound | % inhibition NEK2(h) (NEK2(h); 1 μM) | % inhibition EGFR(h) (EGFR(h); 1 μM) | % inhibition MSK2(h) (MSK2(h); 1 μM) | % inhibition Axl(h) (Axl(h); 1 μM) | % inhibition ROCK-I(h) (ROCK-I(h); 1 μM) | % inhibition Tie2(h) (Tie2(h); 1 μM) | % inhibition Tie2(R849W)(h) (Tie2(R849W)(h); 1 μM) | % inhibition KDR(h) (KDR(h); 1 μM) | % inhibition NEK2(h) (NEK2(h); 10 μM) | % inhibition EGFR(h) (EGFR(h); 10 μM) | % inhibition MSK2(h) (MSK2(h); 10 μM) | % inhibition Axl(h) (Axl(h); 10 μM) | % inhibition ROCK-I(h) (ROCK-I(h); 10 μM) | % inhibition Tie2(h) (Tie2(h); 10 μM) | % inhibition Tie2(R849W)(h) (Tie2(R849W)(h); 10 μM) | % inhibition KDR(h) (KDR(h); 10 μM)
NC(=O)[C@H]1[C@H]2C[C@H]3[C@H]1Nc1nc(ncc1F)Nc1cccc(c1)CSS[C@@H]3C2 [Example 10] | 49% | 53% | 3% | 10% | 96% | 101% | 41% | 32% | – | – | – | – | – | – | – | –
NC(=O)[C@H]1[C@H]2C[C@H]3[C@H]1Nc1nc(ncc1F)Nc1cccc(c1)C(=O)CS[C@@H]3C2 [Example 11] | 98% | 113% | 89% | 105% | −2% | 91% | 103% | 101% | – | – | – | – | – | – | – | –
O=C(O)[C@H]1[C@H]2C[C@H]3[C@H]1Nc1nc(ncc1F)Nc1cccc(c1)OCCS[C@@H]3C2 [Example 21] | – | – | – | – | – | – | – | – | 92% | 49% | 75% | 66% | 98% | 33% | 35% | 10%
CN1CCN(c2ccc3cc2OCCS[C@@H]2C[C@@H]4C[C@H]2[C@@H](Nc2nc(ncc2F)N3)[C@H]4C(N)=O)CC1 [Example 22] | 96% | 48% | 60% | 40% | 109% | 46% | 57% | 41% | – | – | – | – | – | – | – | –
CN1CCN(c2ccc3cc2NC(=O)CS[C@@H]2C[C@@H]4C[C@H]2[C@@H](Nc2nc(ncc2F)N3)[C@H]4C(N)=O)CC1 [Example 24] | 101% | −2% | 81% | 48% | 93% | 8% | 28% | 8% | – | – | – | – | – | – | – | –
N#Cc1ccc2cc1NC(=O)CS[C@@H]1C[C@@H]3C[C@H]1[C@@H](Nc1nc(ncc1F)N2)[C@H]3C(N)=O [Example 26] | 79% | 57% | 2% | 55% | 2% | 44% | 26% | 8% | – | – | – | – | – | – | – | –
NC(=O)[C@H]1[C@H]2C[C@H]3[C@H]1Nc1nc(ncc1F)Nc1cccc(c1)NC(=O)CS[C@@H]3C2 [Example 27] | 113% | 34% | 65% | 63% | 104% | 2% | 17% | 7% | – | – | – | – | – | – | – | –

The remaining lines, values ahead:

% inhibition NEK2(h) (NEK2(h); 1 μM) | % inhibition EGFR(h) (EGFR(h); 1 μM) | % inhibition MSK2(h) (MSK2(h); 1 μM) | % inhibition Axl(h) (Axl(h); 1 μM) | % inhibition ROCK-I(h) (ROCK-I(h); 1 μM) | % inhibition Tie2(h) (Tie2(h); 1 μM) | % inhibition Tie2(R849W)(h) (Tie2(R849W)(h); 1 μM) | % inhibition KDR(h) (KDR(h); 1 μM) | % inhibition NEK2(h) (NEK2(h); 10 μM) | % inhibition EGFR(h) (EGFR(h); 10 μM) | % inhibition MSK2(h) (MSK2(h); 10 μM) | % inhibition Axl(h) (Axl(h); 10 μM) | % inhibition ROCK-I(h) (ROCK-I(h); 10 μM) | % inhibition Tie2(h) (Tie2(h); 10 μM) | % inhibition Tie2(R849W)(h) (Tie2(R849W)(h); 10 μM) | % inhibition KDR(h) (KDR(h); 10 μM) | Compound
95% | 120% | 136% | 107% | 101% | 99% | 93% | 95% | – | – | – | – | – | – | – | – | C=C[C@@H]1C[C@@H]2/C=C/COc3cccc(c3)Nc3ncc(F)c(n3)N[C@H]2[C@H]1C(N)=O (single isomer, unassigned) [Example 3]
110% | 63% | 56% | 96% | 106% | 104% | 92% | 70% | – | – | – | – | – | – | – | – | CC[C@@H]1C[C@@H]2CCCOc3cccc(c3)Nc3ncc(F)c(n3)N[C@H]2[C@H]1C(N)=O (single isomer, unassigned) [Example 5]
107% | 67% | 60% | 78% | 99% | 119% | 91% | 62% | – | – | – | – | – | – | – | – | CC[C@@H]1C[C@@H]2/C=C\COc3cccc(c3)Nc3ncc(F)c(n3)N[C@H]2[C@H]1C(N)=O (single isomer, unassigned) [Example 6]
103% | 67% | 48% | 40% | 96% | 8% | 14% | 8% | – | – | – | – | – | – | – | – | NC(=O)[C@H]1[C@H]2C[C@H]3[C@H]1Nc1nc(ncc1F)Nc1cccc(c1)OCCS[C@@H]3C2 [Example 20]
